Experimental data published in ChEMBL document CHEMBL1201862, “PubChem BioAssay data set” (2004).
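Following 48 hours of exposure in 96-well plates, responses at five concentrations were used to interpolate endpoints linearly. Here, GI50 denotes the concentration required for 50% inhibition of growth.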 Calls of active or inactive are those of the source. No stated cut-off is given here; in the data, active = GI50 up to about 1.1 µM and inactive = higher.

Legend:
Test in all cases: inhibition of tumour cell growth, NCI panel, 48 h
A498 = tested on: A498
A549 = tested on: A549
HCC 2998 = tested on: HCC 2998
HCT-116 = tested on: HCT-116
Hs-578T = tested on: Hs-578T
LOX IMVI = tested on: LOX IMVI
MOLT-4 = tested on: MOLT-4
NCI-H23 = tested on: NCI-H23
NCI-H522 = tested on: NCI-H522
NCI/ADR-RES = tested on: NCI/ADR-RES
OVCAR-8 = tested on: OVCAR-8
PC-3 = tested on: PC-3
SF-295 = tested on: SF-295
SK-MEL-28 = tested on: SK-MEL-28
SK-OV-3 = tested on: SK-OV-3
SN12C = tested on: SN12C
SNB-75 = tested on: SNB-75
U-251 = tested on: U-251
UACC-62 = tested on: UACC-62
SR = tested on: SR

Measured: GI50

O=C(O)/C=C(/CC(=O)O)C(=O)O
inactive: A498 16.3 µM | A549 18.6 µM | HCC 2998 30.8 µM | HCT-116 18.2 µM | Hs-578T 19.9 µM | LOX IMVI 22.7 µM | MOLT-4 19.1 µM | NCI-H23 23.2 µM | NCI-H522 17.9 µM | NCI/ADR-RES 21 µM | OVCAR-8 21.6 µM | PC-3 19.6 µM | SF-295 18.1 µM | SK-MEL-28 21.2 µM | SK-OV-3 21.5 µM | SN12C 19.4 µM | SNB-75 14.1 µM | U-251 19.4 µM | UACC-62 18.2 µM

CC1(C)N[PH]2(Nc3ccccc3O2)OC1=O
inactive: A498 > 100 µM | A549 32.7 µM | HCC 2998 > 100 µM | HCT-116 > 100 µM | Hs-578T > 100 µM | LOX IMVI 18.3 µM | MOLT-4 22.8 µM | NCI-H23 67.9 µM | NCI/ADR-RES 49.9 µM | OVCAR-8 82.8 µM | PC-3 41.1 µM | SF-295 24.7 µM | SK-MEL-28 86.9 µM | SK-OV-3 > 100 µM | SN12C > 100 µM | SNB-75 > 100 µM | U-251 70.1 µM | UACC-62 18.6 µM

O=S(=O)(O)c1c(Cl)cc(O)c2ncccc12
inactive: A498 > 100 µM | A549 > 100 µM | HCC 2998 > 100 µM | HCT-116 > 100 µM | LOX IMVI > 100 µM | MOLT-4 > 100 µM | NCI-H23 > 100 µM | NCI/ADR-RES > 100 µM | OVCAR-8 > 100 µM | PC-3 > 100 µM | SF-295 > 100 µM | SK-MEL-28 > 100 µM | SN12C > 100 µM | SNB-75 > 100 µM | SR > 100 µM | U-251 > 100 µM | UACC-62 > 100 µM

Cc1cc2c(C)cc(=O)[nH]c2cc1N
inactive: A498 > 100 µM | A549 > 100 µM | HCC 2998 61.4 µM | HCT-116 > 100 µM | LOX IMVI > 100 µM | MOLT-4 > 100 µM | NCI-H23 > 100 µM | NCI/ADR-RES > 100 µM | OVCAR-8 > 100 µM | PC-3 34.8 µM | SF-295 > 100 µM | SK-MEL-28 > 100 µM | SN12C > 100 µM | SNB-75 84.3 µM | SR > 100 µM | U-251 72.9 µM | UACC-62 35.4 µM

Cc1cccc(C(C)C)c1NC(=O)C(=O)CC(=O)c1sc(Nc2ccccc2Cl)nc1C
inactive: A498 > 100 µM | A549 31.4 µM | HCC 2998 11.6 µM | HCT-116 8.79 µM | Hs-578T 21.9 µM | LOX IMVI 31.8 µM | MOLT-4 25.6 µM | NCI-H23 35 µM | NCI-H522 40.5 µM | PC-3 22.4 µM | SF-295 12.9 µM | SK-MEL-28 > 100 µM | SK-OV-3 20.7 µM | SN12C 64.9 µM | SNB-75 21.7 µM | SR 18.2 µM | U-251 23.1 µM | UACC-62 42.4 µM

CCN(C(=O)N[C@@H](CC(C)C)C(=O)NCC(=O)OC)c1ccccc1
inactive: A549 > 100 µM | HCC 2998 > 100 µM | HCT-116 > 100 µM | LOX IMVI 44.3 µM | MOLT-4 > 100 µM | NCI-H23 > 100 µM | NCI-H522 > 100 µM | NCI/ADR-RES > 100 µM | OVCAR-8 > 100 µM | PC-3 > 100 µM | SF-295 > 100 µM | SK-MEL-28 38.3 µM | SK-OV-3 > 100 µM | SN12C > 100 µM | SNB-75 72.9 µM | SR > 100 µM | U-251 > 100 µM | UACC-62 30.8 µM

CCOC(=O)N1CCC2(CC1)C[C@@](C(C)=O)(c1ccccc1)C(C)O2 (some centres not stated)
inactive: A498 > 100 µM | A549 51.3 µM | HCC 2998 > 100 µM | Hs-578T > 100 µM | LOX IMVI > 100 µM | MOLT-4 > 100 µM | NCI-H23 > 100 µM | NCI-H522 > 100 µM | NCI/ADR-RES > 100 µM | OVCAR-8 > 100 µM | PC-3 > 100 µM | SF-295 > 100 µM | SK-MEL-28 > 100 µM | SK-OV-3 57.4 µM | SNB-75 80.7 µM | U-251 > 100 µM | UACC-62 56 µM

C/C(=C\COP(=O)(O)CP(=O)(O)O)CC/C=C(\C)CNc1ccccc1
inactive: A549 > 100 µM | HCT-116 > 100 µM | Hs-578T > 100 µM | LOX IMVI > 100 µM | MOLT-4 > 100 µM | NCI-H23 6.28 µM | NCI-H522 > 100 µM | NCI/ADR-RES > 100 µM | OVCAR-8 > 100 µM | PC-3 > 100 µM | SF-295 > 100 µM | SK-MEL-28 > 100 µM | SK-OV-3 > 100 µM | SN12C > 100 µM | SNB-75 > 100 µM | U-251 > 100 µM | UACC-62 > 100 µM

O=C(/C=C/c1ccc2ccccc2c1)NCc1ccc(C(=O)NCCc2ccccc2)cc1
inactive: A498 > 100 µM | A549 > 100 µM | HCC 2998 > 100 µM | HCT-116 > 100 µM | LOX IMVI > 100 µM | MOLT-4 > 100 µM | NCI-H23 > 100 µM | NCI/ADR-RES > 100 µM | OVCAR-8 > 100 µM | PC-3 > 100 µM | SF-295 > 100 µM | SK-MEL-28 > 100 µM | SK-OV-3 > 100 µM | SN12C > 100 µM | SNB-75 41.5 µM | SR > 100 µM | U-251 > 100 µM | UACC-62 > 100 µM

CN(C)c1ccc(/C=C2\CCCCCC2=O)cc1
inactive: A498 > 100 µM | A549 > 100 µM | HCC 2998 > 100 µM | HCT-116 57.3 µM | MOLT-4 > 100 µM | NCI/ADR-RES > 100 µM | OVCAR-8 > 100 µM | PC-3 65 µM | SF-295 > 100 µM | SK-MEL-28 > 100 µM | SK-OV-3 > 100 µM | SN12C > 100 µM | SNB-75 > 100 µM | SR > 100 µM | UACC-62 90.4 µM

Cc1ccc(S(=O)(=O)Nn2c(O)c(C#N)c(-c3ccc(Cl)cc3)c(C#N)c2=O)cc1
inactive: A498 > 100 µM | A549 > 100 µM | HCC 2998 > 100 µM | HCT-116 > 100 µM | Hs-578T 74.3 µM | LOX IMVI > 100 µM | MOLT-4 > 100 µM | NCI-H522 > 100 µM | NCI/ADR-RES > 100 µM | OVCAR-8 > 100 µM | PC-3 > 100 µM | SF-295 > 100 µM | SK-MEL-28 > 100 µM | SK-OV-3 > 100 µM | SN12C > 100 µM | SNB-75 > 100 µM | U-251 > 100 µM | UACC-62 > 100 µM
